# Publication PMC11092066, “Novel analogues of a nonnucleoside SARS-CoV-2 RdRp inhibitor as potential antivirotics” (Beilstein Journal of Organic Chemistry, 2024)
# Target: SARS-CoV-2 RdRp (nsp12, nsp7, nsp8 polymerase complex) (Severe acute respiratory syndrome coronavirus 2, UniProt P0DTD1)
# Assay: biochemical
# Type: biochemical
# Conditions: for BEI (binding efficiency index): calculated as pIC50 [mol/L]/MW [kDa] from SARS-CoV-2 RdRp IC50; for IC50: recombinant RdRp: 1 μM nsp12, 3 μM nsp7, 3 μM nsp8, 0.5 μM template/primer RNA, 10 μM NTPs, 1 h at 30 °C, GraphPad fit
Structure (SMILES),BEI (binding efficiency index),IC50 [µM],inhibitory activity against SARS-CoV-2 RdRp (in words) (primer extension polymerase assay)
Cn1cc(C(=O)N[C@@H](Cc2ccc(O)cc2)C(=O)O)cc(-c2ccccc2)c1=O [3a],9.9,–,–
Cn1cc(C(=O)N[C@@H](Cc2ccc(O)cc2)C(=O)O)cc(-c2cccnc2)c1=O [3b],9.4,204,–
Cn1cc(C(=O)N[C@@H](Cc2ccc(O)cc2)C(=O)O)cc(-c2ccsc2)c1=O [3c],10.2,88.1,–
O=C(N[C@@H](Cc1ccc(O)cc1)C(=O)O)c1cc(-c2ccccc2)c(=O)n2ccsc12 [4a],9.3,88.1,–
Cc1nn2c(=O)c(-c3ccccc3)cc(C(=O)N[C@@H](Cc3ccc(O)cc3)C(=O)O)c2s1 [4b],8.8,113,–
"O=C(N[C@@H](Cc1ccc(O)cc1)C(=O)O)c1cc(-c2ccccc2)c(=O)n2c1sc1ccc(OC3CCCCC3)cc12 [compound 1, HeE1-2Tyr, reference compound]",7.8,–,–
O=C(N[C@@H](Cc1ccc(O)cc1)C(=O)O)c1cc(-c2ccccc2)c(=O)n2c1oc1ccc(OC3CCCCC3)cc12 [compound 2],–,–,devoid of any activity
O=C(N[C@@H](Cc1ccc(O)cc1)C(=O)O)c1cc(-c2ccccc2)c(=O)n(-c2cc(OC3CCCCC3)ccc2O)c1O [compound 16],6.7,114,–
